pIC50: −log10 of the molar value.
target: human LPA1 receptor (Homo sapiens (Human), UniProt Q92633); assay: Beta-arrestin recruitment assay to determine IC50 values for human LPAR1; type: cell-based; conditions: antagonist mode, Tango EDG2-bla U2OS cells, LPA 18:1 500 nM final
Text: Beta-Arrestin Recruitment Assay to Determine IC50 Values for Human LPAR1
The Tango™ EDG2-bla U2OS cells are obtained from Invitrogen. These cells contain the human LPA1 receptor cDNA linked to a TEV protease site and a Gal4-VP16 transcription factor integrated into the Tango™ GPCR-bla U2OS parental cell line. This parental cell line stably expresses a beta-arrestin/TEV protease fusion protein and the beta-lactamase (bla) reporter gene under the control of a UAS response element. Upon LPA (agonist) binding, LPA1 receptor gets activated, leading to arrestin-protease recruitment and proteolytic release of the transcription factor: The transcription factor then regulates transcription of a beta-lactamase reporter construct, which is measured upon addition of the live-cell substrate.
10′000 Tango™ EDG2-bla U2OS cells are seeded in a 384-well black with clear bottom plate in 30 μl Freestyle 293 Expression Medium (Invitrogen) and incubated for 20 h at 37° C., 5% CO2. […] IC50 is the concentration of antagonist inhibiting 50% of the maximal response.

human LPA1 receptor, sequence (Q92633 whole entry): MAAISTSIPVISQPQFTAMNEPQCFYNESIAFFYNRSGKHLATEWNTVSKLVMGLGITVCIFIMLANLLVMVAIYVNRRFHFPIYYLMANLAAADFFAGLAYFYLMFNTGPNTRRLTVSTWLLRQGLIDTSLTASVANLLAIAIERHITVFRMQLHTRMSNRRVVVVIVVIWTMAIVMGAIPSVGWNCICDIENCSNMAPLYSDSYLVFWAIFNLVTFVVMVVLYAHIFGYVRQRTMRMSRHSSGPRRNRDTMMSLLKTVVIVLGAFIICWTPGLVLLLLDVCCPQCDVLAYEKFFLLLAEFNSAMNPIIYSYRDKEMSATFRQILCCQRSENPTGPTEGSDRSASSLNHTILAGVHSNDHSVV

| SMILES | pIC50 |
| --- | --- |
| Cc1ccc(NC(=O)C2(c3ccccc3C(C)C)CCN(C(=O)NCc3c[nH]cn3)CC2)c(OC(F)F)n1 [Ex 17-3, N1-((1H-imidazol-4-yl)methyl)-N4-(2-(difluoromethoxy)-6-methylpyridin-3-yl)-4-(2-isopropylphenyl)piperidine-1,4-carboxamide] | 8.10 |
| Cc1ccc(NC(=O)C2(c3ccccc3C(C)C)CN(C(=O)CNCC3(C(=O)O)CC3)C2)c(OC(F)F)n1 [Ex 46, 1-(((2-(3-((2-(difluoromethoxy)-6-methylpyridin-3-yl)carbamoyl)-3-(2-isopropylphenyl)azetidin-1-yl)-2-oxoethyl)amino)methyl)cyclopropane-1-carboxylic acid] | 7.00 |
| COC(=O)c1ccc(CN2CC(C(=O)Nc3ccc(C)nc3OC(F)F)(c3ccccc3C(C)C)C2)cn1 [Ex 11-52, methyl 5-((3-((2-(difluoromethoxy)-6-methylpyridin-3-yl)carbamoyl)-3-(2-isopropylphenyl)azetidin-1-yl)methyl)picolinate] | 7.10 |
| Cc1ccc(NC(=O)C2(c3ccccc3C(C)C)CN(C(=O)C3CS(=O)(=O)C3)C2)c(OC(F)F)n1 [Ex 12-129, N-(2-(difluoromethoxy)-6-methylpyridin-3-yl)-1-(1,1-dioxidothietane-3-carbonyl)-3-(2-isopropylphenyl)azetidine-3-carboxamide] | 7.24 |
| Cc1ccc(NC(=O)C2(c3ccccc3C(C)C)CN(S(=O)(=O)CCC(=O)O)C2)c(OC(F)F)n1 [Ex 13-5, 3-((3-((2-(difluoromethoxy)-6-methylpyridin-3-yl)carbamoyl)-3-(2-isopropylphenyl)azetidin-1-yl)sulfonyl)propanoic acid] | 8.40 |
| CCOC(=O)C[C@H](N)C(=O)N1CC(C(=O)Nc2ccc(C)nc2OC(F)F)(c2ccccc2C(C)C)C1 [Ex 12-100, ethyl (S)-3-amino-4-(3-((2-(difluoromethoxy)-6-methylpyridin-3-yl)carbamoyl)-3-(2-isopropylphenyl)azetidin-1-yl)-4-oxobutanoate] | 7.64 |
| Cc1ccc(NC(=O)C2(c3ccccc3C(C)C)CN(CCC3(C(=O)O)CC3)C2)c(OC(F)F)n1 [Ex 11-72, 1-(2-(3-((2-(difluoromethoxy)-6-methylpyridin-3-yl)carbamoyl)-3-(2-isopropylphenyl)azetidin-1-yl)ethyl)cyclopropane-1-carboxylic acid] | 7.28 |
| Cc1ccc(NC(=O)C2(c3ccccc3C(C)C)CN(C(=O)/C=C\C(=O)O)C2)c(OC(F)F)n1 [Ex 12-77, (Z)-4-(3-((2-(difluoromethoxy)-6-methylpyridin-3-yl)carbamoyl)-3-(2-isopropylphenyl)azetidin-1-yl)-4-oxobut-2-enoic acid] | 7.51 |
| Cc1ccc(NC(=O)C2(c3ccccc3C(C)C)CN(CC#N)C2)c(OC(F)F)n1 [Ex 11-88, 1-(cyanomethyl)-N-(2-(difluoromethoxy)-6-methylpyridin-3-yl)-3-(2-isopropylphenyl)azetidine-3-carboxamide] | 8.22 |
| Cc1ccc(NC(=O)C2(c3ccccc3C(C)C)CN(C(=O)C[C@H](O)C(=O)O)C2)c(OC(F)F)n1 [Ex 12-34, (S)-4-(3-((2-(difluoromethoxy)-6-methylpyridin-3-yl)carbamoyl)-3-(2-isopropylphenyl)azetidin-1-yl)-2-hydroxy-4-oxobutanoic acid] | 7.48 |
| Cc1ccc(NC(=O)C2(c3ccccc3C(C)C)CN(C#N)C2)c(OC(F)F)n1 [Ex 11-6, 1-cyano-N-(2-(difluoromethoxy)-6-methylpyridin-3-yl)-3-(2-isopropylphenyl)azetidine-3-carboxamide] | 7.96 |
| Cc1ccc(NC(=O)C2(c3ccccc3C(C)C)CN(C(=O)C3C[C@H](O)CN3)C2)c(OC(F)F)n1 (stereo partly drawn) [Ex 12-41, N-(2-(difluoromethoxy)-6-methylpyridin-3-yl)-1-((4S)-4-hydroxypyrrolidine-2-carbonyl)-3-(2-isopropylphenyl)azetidine-3-carboxamide] | 7.16 |
| Cc1ccc(NC(=O)C2(c3ccccc3C(C)C)CN(C(=O)[C@@H]3C[C@@H]3C(=O)O)C2)c(OC(F)F)n1 [Ex 12-95, (1S,2R)-2-(3-((2-(difluoromethoxy)-6-methylpyridin-3-yl)carbamoyl)-3-(2-isopropylphenyl)azetidine-1-carbonyl)cyclopropane-1-carboxylic acid] | 7.85 |
| COc1cnc(NC(=O)C2(c3ccccc3C(C)C)CNC2)c(OC)c1 [Ex 75, N-(3,5-dimethoxypyridin-2-yl)-3-(2-isopropylphenyl)azetidine-3-carboxamide] | 5.36 |
| Cc1ccc(NC(=O)C2(c3ccccc3C(C)C)CN(C(=O)CCC(=O)NS(C)(=O)=O)C2)c(OC(F)F)n1 [Ex 12-119, N-(2-(difluoromethoxy)-6-methylpyridin-3-yl)-3-(2-isopropylphenyl)-1-(4-(methylsulfonamido)-4-oxobutanoyl)azetidine-3-carboxamide] | 7.46 |
| COC(=O)C(C)(C)CN1CC(C(=O)Nc2ccc(C)nc2OC(F)F)(c2ccccc2C(C)C)C1 [Ex 11-24, methyl 3-(3-((2-(difluoromethoxy)-6-methylpyridin-3-yl)carbamoyl)-3-(2-isopropylphenyl)azetidin-1-yl)-2,2-dimethylpropanoate] | 6.55 |
| Cc1ccc(NC(=O)C2(c3ccccc3C(C)C)CN(C(=O)O[C@H](C)C(=O)O)C2)c(OC(F)F)n1 [Ex 14-5, (R)-2-((3-((2-(difluoromethoxy)-6-methylpyridin-3-yl)carbamoyl)-3-(2-isopropylphenyl)azetidine-1-carbonyl)oxy)propanoic acid] | 8.05 |
| Cc1ccc(NC(=O)C2(c3ccccc3C(C)C)CN(S(=O)(=O)CC(C)(C)C(=O)O)C2)c(OC(F)F)n1 [Ex 13-12, 3-((3-((2-(difluoromethoxy)-6-methylpyridin-3-yl)carbamoyl)-3-(2-isopropylphenyl)azetidin-1-yl)sulfonyl)-2,2-dimethylpropanoic acid] | 8.40 |

Second part, the compound after the results:

| pIC50 | SMILES |
| --- | --- |
| 6.98 | COc1cc(Br)cnc1NC(=O)C1(c2ccccc2C(C)C)CN(C(=O)CC(C)(C)C(=O)O)C1 [Ex 79-5, 4-(3-((5-bromo-3-methoxypyridin-2-yl)carbamoyl)-3-(2-isopropylphenyl)azetidin-1-yl)-2,2-dimethyl-4-oxobutanoic acid] |
| 7.96 | Cc1ccc(NC(=O)C2(c3ccccc3C(C)C)CN(c3cnc(C(=O)O)cn3)C2)c(OC(F)F)n1 [Ex 18-9, 5-(3-((2-(difluoromethoxy)-6-methylpyridin-3-yl)carbamoyl)-3-(2-isopropylphenyl)azetidin-1-yl)pyrazine-2-carboxylic acid] |
| 8.30 | CCOC(=O)CNS(=O)(=O)N1CC(C(=O)Nc2ccc(C)nc2OC(F)F)(c2ccccc2C(C)C)C1 [Ex 15-1, Ethyl ((3-((2-(difluoromethoxy)-6-methylpyridin-3-yl)carbamoyl)-3-(2-isopropylphenyl)azetidin-1-yl)sulfonyl)glycinate] |
| 7.19 | COC(=O)C(C)(C)CC(=O)N1CC(C(=O)Nc2ncc(Br)cc2OC(F)F)(c2ccccc2C(C)C)C1 [Ex 79-1, Methyl 4-(3-((5-bromo-3-(difluoromethoxy)pyridin-2-yl)carbamoyl)-3-(2-isopropylphenyl)azetidin-1-yl)-2,2-dimethyl-4-oxobutanoate] |
| 8.70 | Cc1ccc(NC(=O)C2(c3ccccc3C(C)C)CN(c3ncncc3F)C2)c(OC(F)F)n1 [Ex 18-20, N-(2-(difluoromethoxy)-6-methylpyridin-3-yl)-1-(5-fluoropyrimidin-4-yl)-3-(2-isopropylphenyl)azetidine-3-carboxamide] |
| 7.52 | COC(=O)c1cnc(N2CC(C(=O)Nc3ccc(C)nc3OC(F)F)(c3ccccc3C(C)C)C2)n1C [Ex 18-35, methyl 2-(3-((2-(difluoromethoxy)-6-methylpyridin-3-yl)carbamoyl)-3-(2-isopropylphenyl)azetidin-1-yl)-1-methyl-1H-imidazole-5-carboxylate] |
| 8.22 | CCCNS(=O)(=O)N1CC(C(=O)Nc2ccc(C)nc2OC(F)F)(c2ccccc2C(C)C)C1 [Ex 15-11, N-(2-(difluoromethoxy)-6-methylpyridin-3-yl)-3-(2-isopropylphenyl)-1-(N-propylsulfamoyl)azetidine-3-carboxamide] |
| 7.59 | Cc1ccc(NC(=O)C2(c3ccccc3C(C)C)CN(C(=O)N[C@H](C(=O)O)C(C)C)C2)c(OC(F)F)n1 [Ex 17-7, (3-((2-(difluoromethoxy)-6-methylpyridin-3-yl)carbamoyl)-3-(2-isopropylphenyl)azetidine-1-carbonyl)-L-valine] |
| 6.57 | Cc1ccc(NC(=O)C2(c3ccccc3C(C)C)CN(C(=O)N3CCNCC3)C2)c(OC(F)F)n1 [Ex 17-25, N-(2-(difluoromethoxy)-6-methylpyridin-3-yl)-3-(2-isopropylphenyl)-1-(piperazine-1-carbonyl)azetidine-3-carboxamide] |
| 7.47 | Cc1ccc(NC(=O)C2(c3ccccc3C(C)C)CN(c3ccnc(C(=O)O)n3)C2)c(OC(F)F)n1 [Ex 18-11, 4-(3-((2-(difluoromethoxy)-6-methylpyridin-3-yl)carbamoyl)-3-(2-isopropylphenyl)azetidin-1-yl)pyrimidine-2-carboxylic acid] |
| 6.70 | Cc1cnc(NC(=O)C2(c3ccccc3C(C)C)CN(C(=O)CC(C)(C)C(=O)O)C2)c(OC(F)F)c1 [Ex 79-6, 4-(3-((3-(difluoromethoxy)-5-methylpyridin-2-yl)carbamoyl)-3-(2-isopropylphenyl)azetidin-1-yl)-2,2-dimethyl-4-oxobutanoic acid] |
